Results reported in publication PMC4390470 (Investigational new drugs, 2015).
Like-named read-outs stand apart in the source and are kept apart here. Each block holds one compound with its values, some of them ahead of it.

Experiments:
[1] = system: metastatic castration-resistant prostate cancer (mCRPC); details: cited from earlier work
[2] = in vivo
[3] = human, in vivo, 28 days
[4] = in vivo; remark: listed apart in the source

Compound: CC(=O)O[C@H]1CC[C@@]2(C)C(=CC[C@@H]3[C@@H]2CC[C@]2(C)C(c4cccnc4)=CC[C@@H]32)C1 [Abiraterone acetate]
Median OS ([1]; chemotherapy-naïve mCRPC, versus placebo 27.2, ref [16]): not reached | Median OS ([1]; mCRPC following docetaxel therapy, versus placebo 11.2, ref [15]): 15.8 months

Tmax (human, plasma, other: orteronel oral (PO), docetaxel intravenous infusion): ~1 h | Mean plasma concentration-time profile, alone versus in combination (phase 2, orteronel with/without docetaxel and docetaxel with/without orteronel): similar | AUC0-tau and Cmax, alone versus in combination (phase 2, orteronel with/without docetaxel and vice versa): similar
Compound: CC(=O)O[C@@]12CO[C@@H]1C[C@H](O)[C@@]1(C)C(=O)[C@H](O)C3=C(C)[C@@H](OC(=O)[C@H](O)[C@@H](NC(=O)OC(C)(C)C)c4ccccc4)C[C@@](O)([C@@H](OC(=O)c4ccccc4)[C@H]21)C3(C)C [docetaxel]

Compound: CNC(=O)c1ccc(N2C(=S)N(c3ccc(C#N)c(C(F)(F)F)c3)C(=O)C2(C)C)cc1F [enzalutamide]
Median OS ([1]; chemotherapy-naïve mCRPC, versus placebo 31.0, ref [14]): not reached | Median OS ([1]; mCRPC following docetaxel therapy, versus placebo 13.6, ref [17]): 18.4 months

AUC0-tau and Cmax, alone versus in combination [2]: similar | Mean plasma concentration-time profile, alone versus in combination [2]: similar | Recommended phase 2 dose (RP2D) of orteronel in combination with DP [3]: 400 mg BID
Compound: CNC(=O)c1ccc2cc([C@@]3(O)CCn4cncc43)ccc2c1 [orteronel]
Cardiovascular profile [4]: acceptable cardiovascular profile
